For the test, the target named is T1, Monoglyceride lipase (Homo sapiens, UniProt Q99685).
T1 sequence (Q99685 whole entry): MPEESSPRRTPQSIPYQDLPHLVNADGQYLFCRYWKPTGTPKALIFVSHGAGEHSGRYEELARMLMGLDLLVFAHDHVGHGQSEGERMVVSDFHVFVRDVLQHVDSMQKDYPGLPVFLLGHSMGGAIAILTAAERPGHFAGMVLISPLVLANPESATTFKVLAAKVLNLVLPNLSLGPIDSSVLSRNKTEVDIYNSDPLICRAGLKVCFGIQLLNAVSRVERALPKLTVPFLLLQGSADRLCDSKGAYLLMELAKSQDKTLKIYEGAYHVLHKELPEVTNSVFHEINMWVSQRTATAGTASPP
The experiment in a line: In Vitro Competitive Activity-Based Protein Profiling Assay. As for the experimental part:
Human – Proteomes (human prefrontal cortex or cell membrane fractions) (50 μL, 1.0-2.0 mg/mL total protein concentration) were preincubated with varying concentrations of inhibitors at 37° C. After 30 min, FP-Rh or JW912 (1.0 μL, 50 μM in DMSO) was added and the mixture was incubated for another 30 min at room temperature. Reactions were quenched with SDS loading buffer (15 μL-4X) and run on SDS-PAGE.

We go through 22 molecules from BindingDB's records for patent US10781211 (LUNDBECK LA JOLLA RESEARCH CENTER, INC., 2020).

pIC50: −log10 of the molar value.

Usually pIC50 stands for −log10 of the IC50, conventionally taken in molar units.

The molecule `O=C(OC(C(F)(F)F)C(F)(F)F)N1CCC2(CCN(Cc3ccc(C(F)(F)F)cc3N3CCCC3)C2)CC1` [US10781211, Example 201] gave a pIC50 of more than 7.00.

For `O=C(OC(C(F)(F)F)C(F)(F)F)N1CCC2(CCN(Cc3cc(N4CCCC4)cc(C(F)(F)F)c3)C2)CC1` [US10781211, Example 202], the pIC50 is more than 7.00. The same measure for `O=C(OC(C(F)(F)F)C(F)(F)F)N1CCC2(CCCN2Cc2cc(N3CCCC3)cc(C(F)(F)F)c2)CC1` [US10781211, Example 203]: more than 7.00; for `O=C(OC(C(F)(F)F)C(F)(F)F)N1CCC2(CCCN2Cc2cc(N3CCOCC3)cc(C(F)(F)F)c2)CC1` [US10781211, Example 204]: more than 7.00; for `CC1CCCN(c2cc(C(F)(F)F)ccc2CN2CCC3(CCN(C(=O)OC(C(F)(F)F)C(F)(F)F)CC3)C2)C1` (configuration not stated) [US10781211, Example 216]: more than 7.00. With `CC1CCN(c2cc(C(F)(F)F)ccc2CN2CCC3(CCN(C(=O)OC(C(F)(F)F)C(F)(F)F)CC3)C2)C1` (configuration not stated) [US10781211, Example 219] the figure was more than 7.00; with `CC1CCCN(c2cc(CN3CCCC34CCN(C(=O)OC(C(F)(F)F)C(F)(F)F)CC4)cc(C(F)(F)F)c2)C1` (configuration not stated) [US10781211, Example 221], more than 7.00. With `O=C(OC(C(F)(F)F)C(F)(F)F)N1CCC2(CCN(Cc3ccc(N4CCCCC4)c(C(F)(F)F)c3)C2)CC1` [US10781211, Example 228] the figure was more than 7.00.

For the molecule `CC1CCN(c2cc(CN3CCC4(CCN(C(=O)OC(C(F)(F)F)C(F)(F)F)CC4)C3)cc(C(F)(F)F)c2)C1` (configuration not stated) [US10781211, Example 229], the pIC50 is more than 7.00.

`O=C(OC(C(F)(F)F)C(F)(F)F)N1CCC2(CCN(Cc3cc(Cl)cc(N4CCCCC4)c3)C2)CC1` [US10781211, Example 232] gave a pIC50 of more than 7.00. With `O=C(OC(C(F)(F)F)C(F)(F)F)N1CCC2(CCN(Cc3cc(F)cc(N4CCCCC4)c3)C2)CC1` [US10781211, Example 233] the figure was more than 7.00; with `O=C(OC(C(F)(F)F)C(F)(F)F)N1CCC2(CCN(Cc3ccc(C(F)(F)F)c(N4CCCCC4)c3)C2)CC1` [US10781211, Example 234], more than 7.00. The same measure for `O=C(OC(C(F)(F)F)C(F)(F)F)N1CCC2(CCCN2Cc2cc(F)cc(N3CCCCC3)c2)CC1` [US10781211, Example 236]: more than 7.00; for `O=C(OC(C(F)(F)F)C(F)(F)F)N1CCC2(CCN(Cc3ccc(S(F)(F)(F)(F)F)cc3N3CCCCC3)C2)CC1` [US10781211, Example 241]: more than 7.00.

With `O=C(OC(C(F)(F)F)C(F)(F)F)N1CCC2(CCCN2Cc2cc(CN3CCCCC3)cc(C(F)(F)F)c2)CC1` [US10781211, Example 244], the pIC50 was more than 7.00. The same measure for `O=C(OC(C(F)(F)F)C(F)(F)F)N1CCC2(CCN(Cc3cc(CN4CCCCC4)cc(C(F)(F)F)c3)C2)CC1` [US10781211, Example 245]: more than 7.00; for `CC1CN(c2cc(CN3CCC4(CCN(C(=O)OC(C(F)(F)F)C(F)(F)F)CC4)C3)cc(C(F)(F)F)c2)CCO1` (configuration not stated) [US10781211, Example 252]: more than 7.00; for `O=C(OC(C(F)(F)F)C(F)(F)F)N1CCC2(CCCN2Cc2ccc(C(F)(F)F)cc2CN2CCCC2)CC1` [US10781211, Example 262]: more than 7.00. Molecule `O=C(OC(C(F)(F)F)C(F)(F)F)N1CCC2(CCCN2Cc2cc(N3CCCCC3)cc(S(F)(F)(F)(F)F)c2)CC1` [US10781211, Example 263] showed a pIC50 of more than 7.00. With `O=C(OC(C(F)(F)F)C(F)(F)F)N1CCC2(CCCN2Cc2cc(CN3CCCCC3)cc(OC(F)(F)F)c2)CC1` [US10781211, Example 269] the figure was more than 7.00.

On to `O=C(OC(C(F)(F)F)C(F)(F)F)N1CCC2(CCCN2Cc2cc(CN3CCCC3)cc(OC(F)(F)F)c2)CC1` [US10781211, Example 270], for which the pIC50 is more than 7.00. With `O=C(OC(C(F)(F)F)C(F)(F)F)N1CCC2(CCN(Cc3cc(N4CCOCC4)cc(C(F)(F)F)c3)C2)CC1` [US10781211, Example 277] the figure was more than 7.00.
